Experiment: xn = mol fraction of the nth substance listed

CCCC(C)O (stereo not given) + Cc1ccccc1
viscosity [mPa·s], 101 kPa
Settings	x1 = 0.1002	x1 = 0.1998	x1 = 0.2999	x1 = 0.3994	x1 = 0.5004	x1 = 0.6006	x1 = 0.6993	x1 = 0.8004	x1 = 0.8998
303.15 K	0.5378	0.5727	0.629	0.6912	0.7892	0.9188	1.129	1.428	1.926
308.15 K	0.5072	0.5384	0.5879	0.6416	0.7284	0.836	1.012	1.259	1.656
313.15 K	0.4802	0.5063	0.5503	0.5965	0.6696	0.7628	0.9099	1.114	1.435
318.15 K	0.4548	0.4776	0.517	0.5583	0.6236	0.7009	0.8268	0.9944	1.26
323.15 K	0.4322	0.4524	0.4862	0.5226	0.5786	0.6466	0.7539	0.8904	1.11

CCCC(=O)O + CC#N
viscosity [mPa·s], 101 kPa
Settings	x1 = 0.0598	x1 = 0.1252	x1 = 0.1971	x1 = 0.2763	x1 = 0.3641	x1 = 0.4621	x1 = 0.572	x1 = 0.6961	x1 = 0.8375
298.15 K	0.3944	0.4377	0.5044	0.5968	0.717	0.8653	1.039	1.229	1.415
308.15 K	0.3452	0.3849	0.4455	0.5285	0.6349	0.7632	0.9084	1.058	1.187
318.15 K	0.3146	0.3681	0.4272	0.4922	0.5632	0.6398	0.7209	0.8039	0.8836

CCCCNCCCC + CCCCO
Settings	viscosity [mPa·s]
298.15 K, 101.33 kPa, x1 = 0.0635	2.402
298.15 K, 101.33 kPa, x1 = 0.1073	2.317
298.15 K, 101.33 kPa, x1 = 0.1494	2.223
298.15 K, 101.33 kPa, x1 = 0.2108	2.071
298.15 K, 101.33 kPa, x1 = 0.2648	1.932
298.15 K, 101.33 kPa, x1 = 0.3259	1.78
298.15 K, 101.33 kPa, x1 = 0.3973	1.606
298.15 K, 101.33 kPa, x1 = 0.4697	1.447
298.15 K, 101.33 kPa, x1 = 0.5484	1.303
298.15 K, 101.33 kPa, x1 = 0.6286	1.172
298.15 K, 101.33 kPa, x1 = 0.7575	1.015
298.15 K, 101.33 kPa, x1 = 0.8182	0.962
298.15 K, 101.33 kPa, x1 = 0.8572	0.927
298.15 K, 101.33 kPa, x1 = 0.8972	0.888
298.15 K, 101.33 kPa, x1 = 0.923	0.883
303.15 K, 101 kPa, x1 = 0.01155	2.23
303.15 K, 101 kPa, x1 = 0.01803	2.213
303.15 K, 101 kPa, x1 = 0.02448	2.198
303.15 K, 101 kPa, x1 = 0.03423	2.177
303.15 K, 101 kPa, x1 = 0.04155	2.163
303.15 K, 101 kPa, x1 = 0.04858	2.15
303.15 K, 101 kPa, x1 = 0.05659	2.134
303.15 K, 101 kPa, x1 = 0.06332	2.12
303.15 K, 101 kPa, x1 = 0.1014	2.031
303.15 K, 101.33 kPa, x1 = 0.0951	2.122
303.15 K, 101.33 kPa, x1 = 0.1888	1.923
303.15 K, 101.33 kPa, x1 = 0.2886	1.712
303.15 K, 101.33 kPa, x1 = 0.3967	1.507
303.15 K, 101.33 kPa, x1 = 0.4924	1.34
303.15 K, 101.33 kPa, x1 = 0.5903	1.201
303.15 K, 101.33 kPa, x1 = 0.6884	1.078
303.15 K, 101.33 kPa, x1 = 0.7951	0.96
303.15 K, 101.33 kPa, x1 = 0.8941	0.8638
308.15 K, 101.33 kPa, x1 = 0.0635	1.828
308.15 K, 101.33 kPa, x1 = 0.1073	1.767
308.15 K, 101.33 kPa, x1 = 0.1494	1.698
308.15 K, 101.33 kPa, x1 = 0.2108	1.588
308.15 K, 101.33 kPa, x1 = 0.2648	1.485
308.15 K, 101.33 kPa, x1 = 0.3259	1.377
308.15 K, 101.33 kPa, x1 = 0.3973	1.255
308.15 K, 101.33 kPa, x1 = 0.4697	1.145
308.15 K, 101.33 kPa, x1 = 0.5484	1.042
308.15 K, 101.33 kPa, x1 = 0.6286	0.952
308.15 K, 101.33 kPa, x1 = 0.7575	0.841
308.15 K, 101.33 kPa, x1 = 0.8182	0.801
308.15 K, 101.33 kPa, x1 = 0.8572	0.776
308.15 K, 101.33 kPa, x1 = 0.8972	0.753
308.15 K, 101.33 kPa, x1 = 0.923	0.739
313.15 K, 101.33 kPa, x1 = 0.0951	1.68
313.15 K, 101.33 kPa, x1 = 0.1888	1.532
313.15 K, 101.33 kPa, x1 = 0.2886	1.38
313.15 K, 101.33 kPa, x1 = 0.3967	1.225
313.15 K, 101.33 kPa, x1 = 0.4924	1.106
313.15 K, 101.33 kPa, x1 = 0.5903	0.9976
313.15 K, 101.33 kPa, x1 = 0.6884	0.9063
313.15 K, 101.33 kPa, x1 = 0.7951	0.8105
313.15 K, 101.33 kPa, x1 = 0.8941	0.7369
318.15 K, 101.33 kPa, x1 = 0.0635	1.441
318.15 K, 101.33 kPa, x1 = 0.1073	1.395
318.15 K, 101.33 kPa, x1 = 0.1494	1.344
318.15 K, 101.33 kPa, x1 = 0.2108	1.263
318.15 K, 101.33 kPa, x1 = 0.2648	1.188
318.15 K, 101.33 kPa, x1 = 0.3259	1.108
318.15 K, 101.33 kPa, x1 = 0.3973	1.018
318.15 K, 101.33 kPa, x1 = 0.4697	0.938
318.15 K, 101.33 kPa, x1 = 0.5484	0.864
318.15 K, 101.33 kPa, x1 = 0.6286	0.798
318.15 K, 101.33 kPa, x1 = 0.7575	0.717
318.15 K, 101.33 kPa, x1 = 0.8182	0.687
318.15 K, 101.33 kPa, x1 = 0.8572	0.669
318.15 K, 101.33 kPa, x1 = 0.8972	0.65
318.15 K, 101.33 kPa, x1 = 0.923	0.642

CCCC(=O)O + O=[N+]([O-])c1ccccc1
viscosity [mPa·s], 101 kPa
Settings	x2 = 0.1103	x2 = 0.2181	x2 = 0.3235	x2 = 0.4266	x2 = 0.5274	x2 = 0.6259	x2 = 0.7225	x2 = 0.8169	x2 = 0.9094
298.15 K	1.829	1.83	1.837	1.841	1.837	1.82	1.786	1.732	1.653
308.15 K	1.531	1.564	1.59	1.604	1.603	1.582	1.539	1.473	1.381
318.15 K	1.355	1.458	1.527	1.56	1.559	1.523	1.455	1.354	1.22

CCCCBr + Cc1ccc(C)cc1
308.15 K, 101 kPa
Settings	viscosity [mPa·s]
x2 = 0.1002	0.5174
x2 = 0.2	0.5139
x2 = 0.2996	0.5114
x2 = 0.3997	0.5104
x2 = 0.4329	0.5092
x2 = 0.6161	0.5084
x2 = 0.7006	0.5095
x2 = 0.7996	0.5107
x2 = 0.8946	0.5121

CCCC(=O)O + NC=O
viscosity [mPa·s], 101 kPa
Settings	x1 = 0.1043	x1 = 0.2044	x1 = 0.3013	x1 = 0.4031	x1 = 0.5027	x1 = 0.5996	x1 = 0.7011	x1 = 0.799	x1 = 0.857	x1 = 0.951
298.15 K	2.333	3.534	5.24	7.11	8.41	9.33	9.17	8.51	7.33	4.986
313.15 K	1.734	2.563	3.461	4.456	5.37	5.8	5.8	5.54	4.779	3.252

CCCCNCCCC + C1CCCCC1
viscosity [mPa·s], 101 kPa
Settings	303.15 K	313.15 K
x1 = 0.01094	0.8102	0.7072
x1 = 0.02041	0.8023	0.6959
x1 = 0.02983	0.7945	0.6867
x1 = 0.03917	0.7871	0.6761
x1 = 0.04929	0.7755	0.6665
x1 = 0.05831	0.7665	0.6583
x1 = 0.06895	0.7585	0.6494
x1 = 0.07966	0.7491	0.6406
x1 = 0.08806	0.742	0.6327
x2 = 0.1011	0.749	–
x2 = 0.2001	0.737	–
x2 = 0.3025	0.731	–
x2 = 0.4034	0.728	–
x2 = 0.4997	0.727	–
x2 = 0.605	0.729	–
x2 = 0.7025	0.727	–
x2 = 0.7989	0.743	–
x2 = 0.8971	0.759	–

CC(CC(C)(C)C)CC(C)(C)CC(C)(C)C (stereo not given) + CCCCCCCCCCCCCCCC
298.15 K, 101.33 kPa
Settings	viscosity [mPa·s]
x2 = 0.0974	3.252
x2 = 0.2011	3.181
x2 = 0.3015	3.128
x2 = 0.3995	3.09
x2 = 0.4995	3.064
x2 = 0.6002	3.05
x2 = 0.7004	3.045
x2 = 0.8	3.049

From the CheMixHub viscosity set
